Measurements as given in the CheMixHub ionic liquid set.
± gives the uncertainty stated by the source.

Test: xn = mol fraction of the nth substance listed

CCCCCCCCCCCCCC[n+]1ccccc1.O=C([O-])C(O)c1ccccc1 + CC(C)[C@H](N)C(=O)O + O
electrical conductivity [S/m], 101 kPa
Details	293.15 K	298.15 K	303.15 K	308.15 K	313.15 K
x1 = 6.19e-06, x2 = 0.001799	0.00217 ± 0.00055	0.00247 ± 0.00062	0.00278 ± 0.00069	0.00312 ± 0.00077	0.00346 ± 0.00085
x1 = 6.85e-06, x2 = 0	0.00248 ± 0.00074	0.00278 ± 0.00083	0.00309 ± 0.00092	0.0034 ± 0.001	0.0037 ± 0.0011
x1 = 8.87e-06, x2 = 0.0009002	0.00274 ± 0.00063	0.00311 ± 0.00071	0.00349 ± 0.00079	0.00388 ± 0.00088	0.00427 ± 0.00097
x1 = 1.146e-05, x2 = 0.001799	0.00366 ± 0.00071	0.00413 ± 0.0008	0.00464 ± 0.0009	0.0052 ± 0.001	0.0057 ± 0.0011
x1 = 1.424e-05, x2 = 0	0.00472 ± 0.00079	0.00529 ± 0.00089	0.00587 ± 0.00099	0.0065 ± 0.0011	0.0071 ± 0.0012
x1 = 1.485e-05, x2 = 0.0009002	0.00439 ± 0.00076	0.00496 ± 0.00085	0.00555 ± 0.00096	0.0061 ± 0.0011	0.0068 ± 0.0012
x1 = 1.674e-05, x2 = 0.001799	0.0051 ± 0.00079	0.00578 ± 0.00089	0.0065 ± 0.001	0.0072 ± 0.0011	0.008 ± 0.0012
x1 = 1.847e-05, x2 = 0.0009002	0.00537 ± 0.00079	0.00606 ± 0.00088	0.0068 ± 0.001	0.0075 ± 0.0011	0.0083 ± 0.0012
x1 = 2.126e-05, x2 = 0	0.00671 ± 0.0009	0.0076 ± 0.001	0.0084 ± 0.0011	0.0093 ± 0.0013	0.0101 ± 0.0014
x1 = 2.202e-05, x2 = 0.001799	0.00655 ± 0.00089	0.0074 ± 0.001	0.0083 ± 0.0011	0.0093 ± 0.0013	0.0102 ± 0.0014
x1 = 2.264e-05, x2 = 0.0009002	0.00641 ± 0.00083	0.0072 ± 0.00093	0.0081 ± 0.001	0.009 ± 0.0012	0.0099 ± 0.0013
x1 = 2.693e-05, x2 = 0.001799	0.00788 ± 0.00098	0.0089 ± 0.0011	0.01 ± 0.0012	0.0111 ± 0.0014	0.0123 ± 0.0015
x1 = 2.698e-05, x2 = 0.0009002	0.00756 ± 0.00096	0.0086 ± 0.0011	0.0096 ± 0.0012	0.0106 ± 0.0014	0.0117 ± 0.0015
x1 = 2.811e-05, x2 = 0	0.0086 ± 0.001	0.0097 ± 0.0012	0.0108 ± 0.0013	0.0122 ± 0.0015	0.0131 ± 0.0016
x1 = 3.187e-05, x2 = 0.0009002	0.0089 ± 0.001	0.01 ± 0.0012	0.0113 ± 0.0013	0.0125 ± 0.0015	0.0138 ± 0.0016
x1 = 3.257e-05, x2 = 0.001799	0.0094 ± 0.0011	0.0106 ± 0.0012	0.0119 ± 0.0014	0.0132 ± 0.0015	0.0146 ± 0.0017
x1 = 3.46e-05, x2 = 0	0.0103 ± 0.0011	0.0116 ± 0.0013	0.0129 ± 0.0014	0.0145 ± 0.0016	0.0157 ± 0.0018
x1 = 3.876e-05, x2 = 0.001799	0.0107 ± 0.0012	0.0121 ± 0.0013	0.0136 ± 0.0015	0.0152 ± 0.0016	0.0169 ± 0.0018
x1 = 3.93e-05, x2 = 0.0009001	0.0105 ± 0.0011	0.0119 ± 0.0013	0.0133 ± 0.0014	0.0148 ± 0.0016	0.0164 ± 0.0018
x1 = 4.108e-05, x2 = 0	0.0117 ± 0.0012	0.0131 ± 0.0014	0.0146 ± 0.0015	0.0161 ± 0.0017	0.0179 ± 0.0019
x1 = 4.549e-05, x2 = 0.001799	0.0119 ± 0.0012	0.0134 ± 0.0014	0.0151 ± 0.0016	0.0169 ± 0.0018	0.0188 ± 0.0019
x1 = 4.618e-05, x2 = 0.0009001	0.0116 ± 0.0012	0.0131 ± 0.0014	0.0147 ± 0.0015	0.0165 ± 0.0017	0.0183 ± 0.0019
x1 = 4.811e-05, x2 = 0	0.0129 ± 0.0013	0.0144 ± 0.0015	0.0161 ± 0.0017	0.0179 ± 0.0019	0.0198 ± 0.0021
x1 = 5.295e-05, x2 = 0.001799	0.0129 ± 0.0013	0.0146 ± 0.0015	0.0164 ± 0.0017	0.0183 ± 0.0019	0.0203 ± 0.0021
x1 = 5.324e-05, x2 = 0.0009001	0.0126 ± 0.0013	0.0142 ± 0.0014	0.0159 ± 0.0016	0.0178 ± 0.0018	0.0198 ± 0.002
x1 = 5.388e-05, x2 = 0	0.0137 ± 0.0014	0.0154 ± 0.0016	0.0172 ± 0.0018	0.0191 ± 0.002	0.0211 ± 0.0022
x1 = 5.982e-05, x2 = 0	0.0145 ± 0.0015	0.0163 ± 0.0017	0.0182 ± 0.0019	0.0202 ± 0.0021	0.0224 ± 0.0023
x1 = 6.012e-05, x2 = 0.0009001	0.0134 ± 0.0014	0.015 ± 0.0015	0.017 ± 0.0017	0.0191 ± 0.002	0.0212 ± 0.0022
x1 = 6.078e-05, x2 = 0.001799	0.014 ± 0.0014	0.0158 ± 0.0016	0.0177 ± 0.0018	0.0198 ± 0.002	0.0221 ± 0.0023
x1 = 6.559e-05, x2 = 0	0.0153 ± 0.0016	0.0172 ± 0.0018	0.0192 ± 0.0019	0.0213 ± 0.0022	0.0236 ± 0.0024
x1 = 6.609e-05, x2 = 0.0009001	0.0142 ± 0.0014	0.016 ± 0.0016	0.018 ± 0.0018	0.0202 ± 0.0021	0.0224 ± 0.0023
x1 = 6.788e-05, x2 = 0.001799	0.015 ± 0.0015	0.0169 ± 0.0017	0.0189 ± 0.0019	0.0211 ± 0.0022	0.0236 ± 0.0024
x1 = 7.081e-05, x2 = 0	0.016 ± 0.0016	0.018 ± 0.0018	0.02 ± 0.002	0.0223 ± 0.0023	0.0246 ± 0.0025
x1 = 7.153e-05, x2 = 0.0009001	0.0149 ± 0.0015	0.0168 ± 0.0017	0.0189 ± 0.0019	0.0212 ± 0.0022	0.0236 ± 0.0024
x1 = 7.424e-05, x2 = 0.001799	0.0158 ± 0.0016	0.0179 ± 0.0018	0.0201 ± 0.002	0.0224 ± 0.0023	0.0249 ± 0.0025
x1 = 7.604e-05, x2 = 0	0.0167 ± 0.0017	0.0187 ± 0.0019	0.0209 ± 0.0021	0.0232 ± 0.0024	0.0258 ± 0.0026
x1 = 7.714e-05, x2 = 0.0009001	0.0156 ± 0.0016	0.0176 ± 0.0018	0.0198 ± 0.002	0.0223 ± 0.0023	0.0248 ± 0.0026
x1 = 8.025e-05, x2 = 0.001799	0.0166 ± 0.0017	0.0188 ± 0.0019	0.0211 ± 0.0021	0.0236 ± 0.0024	0.0262 ± 0.0027
x1 = 8.072e-05, x2 = 0	0.0173 ± 0.0018	0.0194 ± 0.002	0.0217 ± 0.0022	0.0241 ± 0.0024	0.0266 ± 0.0027
x1 = 8.257e-05, x2 = 0.0009001	0.0163 ± 0.0017	0.0185 ± 0.0019	0.0208 ± 0.0021	–	–

CCCC[N+]1(C)CCCCC1.[Br-] + O + CC[N+]1(C)CCCCC1.[Br-]
101 kPa
Details	viscosity [mPa·s]
293.15 K, x2 = 0.9577, x3 = 0.02117	2.805 ± 0.034
293.15 K, x3 = 0.005974, x1 = 0.002995	1.365 ± 0.017
298.15 K, x2 = 0.9734, x3 = 0.00893	1.815 ± 0.023
308.15 K, x2 = 0.9578, x3 = 0.0142	1.845 ± 0.023

CCC(=O)[O-].C[n+]1ccn(CCO)c1 + O
100 kPa
Details	viscosity [mPa·s]
298.15 K, x1 = 0.7595	94.2 ± 7.1
298.15 K, x1 = 0.8421	117 ± 9.1
308.15 K, x1 = 0.8991	75.9 ± 5.6
318.15 K, x1 = 0.8421	40.3 ± 2.4
323.15 K, x1 = 0.8083	31.9 ± 1.9
323.15 K, x1 = 0.8991	34.8 ± 2.3
328.15 K, x1 = 0.8083	27 ± 1.7
328.15 K, x1 = 0.9102	30.5 ± 1.8
333.15 K, x1 = 0.8991	23.6 ± 1.3

CCCC[N+]1(C)CCCC1.F[B-](F)(F)F + CC1COC(=O)O1 + CCCC[N+]1(C)CCCC1.O=S(=O)([N-]S(=O)(=O)C(F)(F)F)C(F)(F)F
293.15 K, 100 kPa, x2 = 0.4706, x3 = 0.05882
Details	electrical conductivity [S/m]	viscosity [mPa·s]
–	0.96 ± 0.06	7.6 ± 1.2

Oc1cccc(O)c1O + CCC[N+](CCC)(CCC)CCC.[Br-]
101.3 kPa, x2 = 0.5
Details	electrical conductivity [S/m]	viscosity [mPa·s]
293.15 K	0.00158 ± 6.8e-05	36500 ± 4900
298.15 K	0.00309 ± 9.7e-05	–
303.15 K	0.00531 ± 0.00022	17000 ± 2000
308.15 K	0.0126 ± 0.00037	11500 ± 1300
313.15 K	0.0186 ± 0.00046	6800 ± 690
333.15 K	0.0967 ± 0.0022	850 ± 88

CCO + CC(=O)[O-].CC[n+]1ccn(C)c1
101 kPa, x1 = 1
Details	viscosity [mPa·s]
318.15 K	0.755 ± 0.016
338.15 K	0.543 ± 0.012

CCCCCC[n+]1ccn(C)c1C.O=S(=O)([N-]S(=O)(=O)C(F)(F)F)C(F)(F)F + CCCCCCCCCCCCCC[P+](CCCCCC)(CCCCCC)CCCCCC.O=S(=O)([N-]S(=O)(=O)C(F)(F)F)C(F)(F)F
Details	viscosity [mPa·s]
278.15 K, 100 kPa, x1 = 0.6	930 ± 120

CCO + CCCC[n+]1ccn(C)c1.O=S(=O)([N-]S(=O)(=O)C(F)(F)F)C(F)(F)F
100 kPa, x2 = 0
Details	viscosity [mPa·s]
297.55 K	1.11 ± 0.06
297.85 K	1.1 ± 0.06
298.15 K	1.1 ± 0.06
301.48 K	1.04 ± 0.05
303.3 K	1.01 ± 0.05
309.67 K	0.91 ± 0.05
312.7 K	0.86 ± 0.05
313 K	0.86 ± 0.04
313.3 K	0.85 ± 0.05
313.61 K	0.85 ± 0.04
316.33 K	0.8 ± 0.04
319.36 K	0.76 ± 0.04
319.67 K	0.76 ± 0.04

CCC(=O)OC + O=S(=O)([N-]S(=O)(=O)C(F)(F)F)C(F)(F)F.[Li+] + COC(=O)OC
298.15 K, 100 kPa
Details	viscosity [mPa·s]
x2 = 0.333, x3 = 0	21.6 ± 0.5
x2 = 0.333, x3 = 0.3335	38.6 ± 1.1
